Measurements taken from BindingDB's records for doi:10.1021/jm00043a006 (Parke-Davis Pharmaceutical Research, 1994).

Target: T1, Dimer of Gag-Pol polyprotein [489-587] (Human immunodeficiency virus 1, UniProt P12497)
T1 construct: 489-587
Experiment: Protease Inhibition Assay
Settings: pH 4.7; 37 °C
Description: For determination of IC50 values, HIV-1 protease was added to assay buffer containing inhibitor and the substrate (H-His-Lys-Ala-Arg-Val-Leu- (p-NO2) Phe-Glu-Ala-norleucine-Ser-NH2). The Leu- (p-NO2) Phe bond of the substrate was cleaved by the enzyme, and the substrate and products were separated by reversed-phase HPLC. Absorbance was measured at 220 nm, peak areas were determined, and percentage conversion to product was calculated.

`Nc1cccc(OCCCc2c(O)c3ccccc3oc2=O)c1` [3-[3-(3-aminophenoxy)propyl]-4-hydroxy-2H-chromen-2-one] was tested, and the IC50 was 6.4 µM.
`NC(=O)c1cccc(OCCCc2c(O)c3ccccc3oc2=O)c1` [3-[3-(4-Hydroxy-2-oxo-2H-1-benzopyran-3-yl)prpoxyl-benzamide] was tested, and the IC50 was 3.9 µM.
`O=C(O)c1cccc(OCCCc2c(O)c3ccccc3oc2=O)c1` [3-[3-(4-hydroxy-2-oxo-2H-chromen-3-yl)propoxy]benzoic acid] was tested, and the IC50 was 7 µM.
For `O=c1oc2ccccc2c(O)c1CCCO` [4-Hydroxy-3-(3-hydroxypropyl)-2H-1-benzopyran-2-one], the IC50 was 86 µM.
`O=c1oc2ccccc2c(O)c1CC/C(=N/O)c1ccccc1` [4-Hydroxy-3-[3-(hydroroKyimino)-3-phenylpropyl] -2H-1-benzopyran-2-one] showed an IC50 of 71 µM.
For `O=c1[nH]c2ccccc2c(O)c1CCCOc1ccccc1` [4-hydroxy-3-(3-phenoxypropyl)-1,2-dihydroquinolin-2-one], the IC50 was over 200 µM.
`O=c1oc2ccccc2c(O)c1CCCCOc1ccccc1` [4-hydroxy-3-(4-phenoxybutyl)-2H-chromen-2-one] was tested, and the IC50 was over 100 µM.
With `COc1ccccc1OCCCc1c(O)c2ccccc2oc1=O` [4-hydroxy-3-[3-(2-methoxyphenoxy)propyl]-2H-chromen-2-one] the IC50 was 44 µM.
`COc1ccccc1CCCCc1c(O)c2ccccc2oc1=O` [4-hydroxy-3-[4-(2-methoxyphenyl)butyl]-2H-chromen-2-one] gave an IC50 of 1.7 µM.
Compound `COc1ccc(CCCCc2c(O)c3ccccc3oc2=O)cc1` [4-hydroxy-3-[4-(4-methoxyphenyl)butyl]-2H-chromen-2-one] has an IC50 of over 100 µM.
With `O=c1oc2ccccc2c(O)c1CCCOc1cccc(CO)c1` [4-hydroxy-3-{3-[3-(hydroxymethyl)phenoxy]propyl}-2H-chromen-2-one] the IC50 was 2.3 µM.
For `COc1ccccc1CCCCc1c(O)c2ccc(OCc3ccccc3)cc2oc1=O` [7-(benzyloxy)-4-hydroxy-3-[4-(2-methoxyphenyl)butyl]-2H-chromen-2-one], the IC50 was over 100 µM.
Compound `CCOC(=O)c1cccc(OCCCc2c(O)c3ccccc3oc2=O)c1` [ethyl 3-[3-(4-hydroxy-2-oxo-2H-chromen-3-yl)propoxy]benzoate] has an IC50 of 1.4 µM.
